One block for each molecule: values may come before it.
Columns and labels:
normal lung fibroblasts = assay: Cytotoxicity in normal cells; format: cell-based; conditions: concentrations as high as 10 micromolar
Description: (§1) 35 cell lines were identified as sensitive to apilimod-induced cytotoxicity.

MEF-EV (TSC2−/−) cells = assay: 10-point dose response viability (CellTiter-Glo, 72 hours); format: cell-based; conditions: Mus musculus, average of two experiments
Description: (§2) See e.g., Zhang et al. J. Clin. Invest. 112, 1223-33, 2003. (2) ELT3-EV and ELT3-TSC2 lines were established from the ELT3 rat tumor cell line. The ELT3 line is an established rat tumor model for LAM/TSC. See e.g., Howe et al., Am. J. Path. 146, 1568-79, 1995. These cells harbor an inactivating mutation in TSC2, which leads to constitutive activation of the mTOR pathway. To develop an isogenic pair of cells ELT3 cells were infected with a retrovirus vector encoding the hygromycin antibiotic resistance gene (ELT3-EV) or the same retrovirus vector also encoding TSC2 (ELT3-TSC2). The ELT3-EV and ELT3-TSC2 line were then established by hygromycin selection. (3) TRI-AML102 and AML103 lines were established from a TSC2 null primary human AML sample provided by Dr. Elizabeth Henske (Fox Chase Cancer Center, Philadelphia, Pa.). The cells were infected with amphotropic retrovirus LXSN16E6E7 that encodes the HPV16 E6 and E7 open reading frames and neomycin resistance cassette. Cells were expanded and neomycin-selected. Individual clones were isolated and frozen down. The coding sequence for the human Telomerase gene (hTERT) with hygromycin resistance cassette (pLXSN hTERT-hyg plasmid) was stably expressed into a TSC2^−/− confirmed E6E7 AML clone using Fugene6 transfection reagent (Roche Applied Science, Indianapolis, Ind.). TRI-AML102 was generated by stable incorporation of a control zeomycin selection plasmid (pcDNA3.1-zeo), while TRI-AML103 expresses the human TSC2 cDNA pcDNA3.1-zeo plasmid. As a result of these engineering processes, both TRI102 and TRI103 are neomycin, hygromycin, and zeomycin resistant lines.
(§3) IC50 values were then calculated from the dose response curves using XLFIT (IDBS).

ELT3-TSC2 cells = assay: as above; format: cell-based; conditions: Rattus norvegicus; ELT3 rescue line; average of two experiments
Description: as §2, §3

[1] = tested on: TRI-AML103 (TSC2 rescue AML) cells; assay: as above; format: cell-based; conditions: Homo sapiens; AML column, rescue line; average of two experiments
Description: as §2, §3

[2] = tested on: MEF-TSC2 (TSC2 rescue) cells; assay: as above; format: cell-based; conditions: Mus musculus; MEF TSC2 rescue line; average of two experiments
Description: as §2, §3

[3] = tested on: (TSC2+/−, p53−/−) MEF line; assay: as above; format: cell-based; conditions: Mus musculus; MEF TSC2+/− p53−/− as counterpart of TSC2−/− p53−/−; average of two experiments; read-out: IC50 TSC2 rescue (viability)
Description: as §2, §3

[4] = tested on: (TSC2−/−, p53−/−) MEF line; assay: as above; format: cell-based; conditions: Mus musculus, average of two experiments
Description: as §2, §3

[5] = tested on: TRI-AML102 (TSC2 null AML) cells; assay: as above; format: cell-based; conditions: Homo sapiens; AML column; average of two experiments
Description: as §2, §3

ELT3-EV cells = assay: as above; format: cell-based; conditions: Rattus norvegicus, average of two experiments, read-out: IC50 TSC2−/− (viability)
Description: as §2, §3

H4 neuroglioma cell line = assay: Autophagic vacuoles (Cyto-ID Autophagy detection kit); format: cell-based, human; conditions: H4 cells, 72 hours of treatment
Description: (§4) Autophagy was quantified using the Cyto-ID Autophagy detection kit (Enzo) according to manufacturer's directions.

U937 = conditions: cited from earlier work
[6] = tested on: patients with rheumatoid arthritis; conditions: Phase II; cited from earlier work
Jurkat = conditions: cited from earlier work
THP-1 = conditions: cited from earlier work
Vac14 = target: T1, Vac14 (Homo sapiens, UniProt Q08AM6); assay: Chemical capture mass spectrometry (CCMS) in H4 whole cell lysate; format: binding; conditions: apilimod as competitor ligand
T1 construct: endogenous in cells; host or cells: H4 human neuroglioma cells (whole cell lysate)
T1 sequence (Q08AM6 whole entry): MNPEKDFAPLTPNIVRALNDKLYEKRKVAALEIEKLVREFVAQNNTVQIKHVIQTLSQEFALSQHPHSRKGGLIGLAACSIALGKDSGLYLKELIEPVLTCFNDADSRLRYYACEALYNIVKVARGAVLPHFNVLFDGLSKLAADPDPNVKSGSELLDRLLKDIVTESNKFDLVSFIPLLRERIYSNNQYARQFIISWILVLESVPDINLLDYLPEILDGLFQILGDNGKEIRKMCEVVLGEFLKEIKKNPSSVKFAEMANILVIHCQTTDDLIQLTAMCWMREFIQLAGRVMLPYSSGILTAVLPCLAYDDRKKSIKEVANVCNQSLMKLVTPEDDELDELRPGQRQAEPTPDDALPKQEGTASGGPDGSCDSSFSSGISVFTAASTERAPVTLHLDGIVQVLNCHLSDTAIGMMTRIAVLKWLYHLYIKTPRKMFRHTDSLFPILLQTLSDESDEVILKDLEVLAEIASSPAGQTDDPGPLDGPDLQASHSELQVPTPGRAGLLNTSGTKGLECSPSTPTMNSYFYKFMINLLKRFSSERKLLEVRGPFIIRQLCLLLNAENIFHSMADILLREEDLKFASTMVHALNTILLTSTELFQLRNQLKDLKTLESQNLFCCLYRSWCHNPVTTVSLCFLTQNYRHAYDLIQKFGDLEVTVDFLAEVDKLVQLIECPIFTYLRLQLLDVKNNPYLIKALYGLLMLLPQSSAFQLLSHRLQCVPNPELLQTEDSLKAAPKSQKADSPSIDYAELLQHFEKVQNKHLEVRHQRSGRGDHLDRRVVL
T1 sequence (Q9Y2I7 2-2098 partner): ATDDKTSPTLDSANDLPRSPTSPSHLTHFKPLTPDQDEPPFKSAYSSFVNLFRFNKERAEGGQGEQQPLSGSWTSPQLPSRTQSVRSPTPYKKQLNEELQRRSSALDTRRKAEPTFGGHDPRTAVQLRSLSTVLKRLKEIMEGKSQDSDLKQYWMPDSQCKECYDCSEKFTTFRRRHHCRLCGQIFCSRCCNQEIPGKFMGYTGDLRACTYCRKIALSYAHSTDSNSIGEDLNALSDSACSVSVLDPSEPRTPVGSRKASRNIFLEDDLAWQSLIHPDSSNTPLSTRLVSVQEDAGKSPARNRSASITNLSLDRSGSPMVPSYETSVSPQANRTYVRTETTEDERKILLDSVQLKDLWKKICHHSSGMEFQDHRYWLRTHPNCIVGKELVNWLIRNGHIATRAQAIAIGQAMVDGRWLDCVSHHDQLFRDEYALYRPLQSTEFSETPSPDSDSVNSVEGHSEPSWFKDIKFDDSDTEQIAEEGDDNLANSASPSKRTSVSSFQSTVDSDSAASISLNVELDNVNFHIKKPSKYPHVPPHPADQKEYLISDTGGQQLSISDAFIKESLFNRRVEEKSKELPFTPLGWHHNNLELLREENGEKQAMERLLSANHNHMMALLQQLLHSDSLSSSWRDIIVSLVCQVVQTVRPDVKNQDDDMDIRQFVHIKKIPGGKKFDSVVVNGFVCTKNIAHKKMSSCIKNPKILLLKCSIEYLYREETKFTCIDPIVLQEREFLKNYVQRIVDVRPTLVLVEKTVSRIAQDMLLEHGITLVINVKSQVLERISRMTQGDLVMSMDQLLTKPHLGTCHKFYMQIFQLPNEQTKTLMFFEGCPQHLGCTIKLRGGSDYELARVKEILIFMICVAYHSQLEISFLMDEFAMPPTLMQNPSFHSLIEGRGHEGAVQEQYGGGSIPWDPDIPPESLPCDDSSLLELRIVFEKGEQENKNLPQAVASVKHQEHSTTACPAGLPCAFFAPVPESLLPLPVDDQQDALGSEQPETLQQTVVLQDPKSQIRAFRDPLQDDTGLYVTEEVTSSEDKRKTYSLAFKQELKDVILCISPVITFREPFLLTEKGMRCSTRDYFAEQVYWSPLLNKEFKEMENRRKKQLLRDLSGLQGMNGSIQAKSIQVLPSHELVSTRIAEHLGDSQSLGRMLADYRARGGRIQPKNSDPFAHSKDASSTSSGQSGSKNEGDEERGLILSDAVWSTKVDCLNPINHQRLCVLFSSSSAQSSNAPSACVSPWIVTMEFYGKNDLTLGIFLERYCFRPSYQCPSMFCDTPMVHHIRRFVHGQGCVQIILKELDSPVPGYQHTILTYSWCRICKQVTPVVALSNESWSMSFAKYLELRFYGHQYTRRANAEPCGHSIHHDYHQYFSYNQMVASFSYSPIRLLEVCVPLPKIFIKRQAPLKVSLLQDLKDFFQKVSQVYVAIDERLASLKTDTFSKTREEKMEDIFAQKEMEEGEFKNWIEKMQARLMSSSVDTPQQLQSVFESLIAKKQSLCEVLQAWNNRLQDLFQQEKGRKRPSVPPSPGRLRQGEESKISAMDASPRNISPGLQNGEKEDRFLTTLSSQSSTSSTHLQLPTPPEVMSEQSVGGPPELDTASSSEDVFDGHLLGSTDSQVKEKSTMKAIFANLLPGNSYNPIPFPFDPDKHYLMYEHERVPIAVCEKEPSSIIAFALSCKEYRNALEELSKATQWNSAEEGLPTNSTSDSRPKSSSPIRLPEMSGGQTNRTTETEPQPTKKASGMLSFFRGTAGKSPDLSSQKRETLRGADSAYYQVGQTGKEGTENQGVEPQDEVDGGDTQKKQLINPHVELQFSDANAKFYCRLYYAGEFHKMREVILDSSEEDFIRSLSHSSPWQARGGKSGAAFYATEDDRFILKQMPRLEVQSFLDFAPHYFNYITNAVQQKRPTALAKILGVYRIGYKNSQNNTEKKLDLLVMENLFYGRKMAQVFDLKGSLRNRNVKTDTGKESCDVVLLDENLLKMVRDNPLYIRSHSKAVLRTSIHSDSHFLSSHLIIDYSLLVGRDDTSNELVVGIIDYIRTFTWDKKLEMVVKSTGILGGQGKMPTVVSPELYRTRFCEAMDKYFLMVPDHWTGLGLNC
Procedure: This work was performed at Caprotec Bioanalytics GmbH, Berlin Germany. See Michaelis et al., J. Med. Chem., 55 3934-44 (2012) and references cited therein.
Capture conditions were optimized in whole cell lysate from H4 (human neuroglioma) cancer cells, e.g. minimization of non-specific interactions of the proteins with capture compounds, concentration of reagents and proteins to obtain maximum binding of proteins and capture compounds, etc. […] These specific binders were further subjected to stringent data analysis criteria to determine specificity after unbiased data evaluation. Specific protein binders were ranked according to their fold change (FC) values in the capture experiments.

HELA = conditions: cited from earlier work
H4 = assay: Cell viability dose response; format: cell-based; conditions: Homo sapiens, H4, Human neuroglioma
Description: as §1, §4
No statistically significant relationship was found with the sole exception of IL-23A (p=0.022). […] Importantly, the statistical significance of IL-23A expression in sensitive cancer lines appears to be driven entirely by just two colon cancer lines. Furthermore IL-23A expression is not a statistically significant predictor of sensitivity in Non-Hodgkin's B cell lymphoma.

[7] = tested on: peripheral blood mononuclear cells; conditions: cited from earlier work
[8] = tested on: renal clear cell carcinoma cell line A704; assay: Antiproliferative single treatment study (CellTiterGlo, 120 h); format: cell-based; conditions: Homo sapiens, A704, 120 h, read-out: IC50 (Avg., n=2)
Procedure: (§5) All drug dilutions were made up as a 2× stock and 50 μL added to appropriate wells. Cells were treated for 120 h before viability was assessed using CellTiterGlo® (Promega) where the relative luminescence of untreated cells was set to 100% viability and each drug concentration expressed as a percentage of untreated cells. EC50 values were determined using GraphPad Prism (GraphPad Software, Inc). Briefly, raw data was log transformed and then analyzed using nonlinear regression (curve fit) where the data were constrained (bottom=0, top=100).

[9] = tested on: renal clear cell carcinoma cell line 769-P; assay: as above; format: cell-based; conditions: Homo sapiens, read-out: IC50 (Avg., n=2)
Procedure: as §5

[10] = tested on: renal clear cell carcinoma cell line RCC-MF; assay: as above; format: cell-based; conditions: read-out: IC50 (Avg., n=2)
Procedure: as §5

[11] = tested on: renal clear cell carcinoma cell line RCC-ER; assay: as above; format: cell-based; conditions: read-out: IC50 (Avg., n=2)
Procedure: as §5

[12] = tested on: renal clear cell carcinoma cell line 786-O; assay: as above; format: cell-based; conditions: Homo sapiens, 786-0, read-out: IC50 (Avg., n=2)
Procedure: as §5

[13] = tested on: renal clear cell carcinoma cell line RCC-JF; assay: as above; format: cell-based; conditions: read-out: IC50 (Avg., n=2)
Procedure: as §5

[14] = tested on: renal clear cell carcinoma cell line RCC-JW; assay: as above; format: cell-based; conditions: read-out: IC50 (Avg., n=2)
Procedure: as §5

[15] = tested on: renal clear cell carcinoma cell line RCC-FG2; assay: as above; format: cell-based; conditions: read-out: IC50 (Avg., n=2); RCC-FG2, 120 h
Procedure: as §5

log (FC) (Vac14; capture compound 0.1 μM): 6.2
log (FC) (Vac14; capture compound 0.5 μM): 5.6
log (FC) (Vac14; capture compound 1.0 μM): Inf.
log (FC) (Vac14; capture compound 2.0 μM): 3.9
SMILES: Cc1cccc(/C=N/Nc2cc(N3CCOCC3)nc(OCCc3ccccn3)n2)c1 [apilimod]
sensitivity to apilimod-induced cytotoxicity (normal lung fibroblasts): not sensitive
IC50 (MEF-EV (TSC2−/−) cells): 19.7 nM
IC50 (ELT3-TSC2 cells): 16.1 nM
IC50 [1]: 132 nM
IC50 [2]: 20.1 nM
IC50 [3]: 70.7 nM
IC50 [4]: 28.8 nM
IC50 [5]: 117 nM
IC50 (ELT3-EV cells): 13.7 nM
autophagy (autophagic vacuoles) (H4 neuroglioma cell line): induces autophagy in a dose-dependent manner
cytotoxicity (U937): not cytotoxic
synovial IL-12 and IL-23 expression [6]: failed to alter synovial IL-12 and IL-23 expression
cytotoxicity (Jurkat): not cytotoxic
cytotoxicity (THP-1): not cytotoxic
cytotoxicity (HELA): not cytotoxic
IC50 (H4): 250 to 300 nM
cytotoxicity [7]: not cytotoxic

IC50 [8]: 11 nM
IC50 [9]: 44 nM
IC50 [10]: 8 nM
IC50 [11]: 9 nM
IC50 [12]: 71 nM
IC50 [13]: 60 nM
IC50 [14]: 27 nM
IC50 [15]: 32 nM
SMILES: Cc1cccc(/C=N/Nc2cc(N3CCOCC3)nc(OCCc3ccccn3)n2)c1 [LAM-002]

Source: patent US11166944B2 (AI Therapeutics, priority 2014, dated 2021)
